Among the test systems are CAKI-1 renal; HT29 colon; HL-60(TB) leukemia; SF-268 CNS; SF-539 CNS; OVCAR-3 ovarian; ACHN renal; LOX IMVI melanoma; SK-MEL-5 melanoma; SF-295 CNS.
Common to all, as to assay: DTP human tumour cell line panel, 48 h

Where “and” joins values, the source holds several entries; their conditions need not be identical. Equal values may be shown once.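 Grown in 96-well plates, cells were treated for 48 hours with each compound at five concentrations. Insufficient inhibition: endpoint recorded as highest concentration tested. The concentration for 50% growth inhibition is given as GI50. TGI denotes the concentration required for complete inhibition of growth.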

For the compound `CS(=O)(=O)c1ccc(Oc2nccc(-c3c(-c4ccc(F)cc4)ncn3C3CCNCC3)n2)cc1`, the GI50 with CAKI-1 renal is over 25 µM; in the assay with HT29 colon, over 22.2 µM; in the assay on HL-60(TB) leukemia, over 20.6 µM; in the assay with SF-268 CNS, over 25 µM; with SF-539 CNS it was over 25 µM; in the assay with OVCAR-3 ovarian, over 25 µM. Further, the GI50 in the assay on ACHN renal, in the assay on LOX IMVI melanoma, in the assay with SK-MEL-5 melanoma and with SF-295 CNS was over 25 µM each time. The total growth inhibition concentration (TGI) in the assay with CAKI-1 renal, in the assay with HT29 colon, with HL-60(TB) leukemia, in the assay on SF-268 CNS, in the assay on SF-539 CNS and with OVCAR-3 ovarian was over 25 µM each time. The TGI with ACHN renal, with LOX IMVI melanoma, in the assay on SK-MEL-5 melanoma and in the assay on SF-295 CNS was over 25 µM in each case.
As for `Cc1c(C(=O)CCl)c(=O)n(-c2ccccc2)n1C`, the GI50 is 3.2 µM with CAKI-1 renal; 3.25 µM with HT29 colon; 3.8 µM in the assay on HL-60(TB) leukemia; 5.47 µM in the assay with SF-268 CNS; 7.19 µM with SF-539 CNS; 1.98 µM in the assay on OVCAR-3 ovarian. The GI50 in the assay on ACHN renal was 4.54 µM; with LOX IMVI melanoma, 3.27 µM; with SK-MEL-5 melanoma, 3.66 µM; in the assay on SF-295 CNS, 10.9 µM. The TGI in the assay with CAKI-1 renal turned out to be 12 µM; with HT29 colon, 12.9 µM; with HL-60(TB) leukemia it was 13.5 µM; in the assay on SF-268 CNS, 19.7 µM; in the assay on SF-539 CNS, 22.9 µM; in the assay on OVCAR-3 ovarian, 4.94 µM. Further, the TGI is 16.6 µM in the assay on ACHN renal, 14.3 µM in the assay on LOX IMVI melanoma, 14.5 µM in the assay on SK-MEL-5 melanoma and 44.3 µM in the assay on SF-295 CNS.
`Cc1ccc(C)c(NC(=O)CC2C(=O)Nc3ccccc3S2(=O)=O)c1` (stereo not given): the TGI in the assay with CAKI-1 renal is over 100 µM; with HT29 colon, over 100 µM; in the assay with HL-60(TB) leukemia, over 100 µM; with SF-268 CNS it was over 100 µM; in the assay on SF-539 CNS, 82.5 µM; in the assay with OVCAR-3 ovarian, over 100 µM. Besides, the TGI in the assay with ACHN renal, in the assay on LOX IMVI melanoma, in the assay with SK-MEL-5 melanoma and in the assay with SF-295 CNS was over 100 µM each time.
Take `Cc1cc(N(CCC#N)CCC#N)ccc1N=Nc1ccccc1[N+](=O)[O-]`: the TGI in the assay on CAKI-1 renal, with HT29 colon, in the assay with HL-60(TB) leukemia, in the assay on SF-268 CNS, with SF-539 CNS and in the assay with OVCAR-3 ovarian was over 100 µM throughout. Moreover, the concentration for total growth inhibition (TGI) with ACHN renal, with LOX IMVI melanoma, with SK-MEL-5 melanoma and in the assay with SF-295 CNS was over 100 µM throughout.
`Brc1nc2c3ccccc3ncn2c1Br`: the TGI in the assay on CAKI-1 renal was 79.5 µM; with HT29 colon, over 100 µM; with HL-60(TB) leukemia it was over 100 µM; with SF-268 CNS, over 100 µM; with SF-539 CNS, over 100 µM; with OVCAR-3 ovarian, 22.5 µM. Besides, the TGI in the assay on ACHN renal was 50.9 µM; with LOX IMVI melanoma, 77.4 µM; with SK-MEL-5 melanoma, 39.3 µM; in the assay with SF-295 CNS it was over 100 µM.
As to `O=P(Oc1ccccc1)(Oc1ccccc1)C(O)c1ccccc1` (stereo not given), the GI50 in the assay on CAKI-1 renal was 66.5 µM; in the assay with HT29 colon it was 78.1 µM; in the assay on HL-60(TB) leukemia, 60.7 µM; in the assay on SF-268 CNS, over 100 µM; with SF-539 CNS, over 100 µM; in the assay with OVCAR-3 ovarian it was 43.9 µM. The GI50 in the assay on ACHN renal was over 100 µM; in the assay on LOX IMVI melanoma it was over 100 µM; in the assay with SK-MEL-5 melanoma, 53.1 µM; in the assay with SF-295 CNS, 29.3 µM. The concentration for total growth inhibition (TGI) in the assay with CAKI-1 renal, with HT29 colon, in the assay with HL-60(TB) leukemia, in the assay on SF-268 CNS, in the assay on SF-539 CNS and in the assay with OVCAR-3 ovarian was over 100 µM in each case. The TGI with ACHN renal, in the assay on LOX IMVI melanoma, in the assay with SK-MEL-5 melanoma and in the assay on SF-295 CNS was over 100 µM each time.
With `O=C(O)C1CCCN1Cc1c[nH]c2ccccc12` (stereo not given), the TGI with CAKI-1 renal, in the assay on HT29 colon, in the assay on HL-60(TB) leukemia, in the assay on SF-268 CNS, with SF-539 CNS and in the assay on OVCAR-3 ovarian was over 100 µM each time. The total growth inhibition concentration (TGI) in the assay on ACHN renal, with LOX IMVI melanoma, with SK-MEL-5 melanoma and with SF-295 CNS was over 100 µM in each case.
As to `Cc1c2cc[n+](C)cc2c(C)c2c1[nH]c1ccc(OC(C)C)cc12`, the concentration for total growth inhibition (TGI) in the assay on CAKI-1 renal was over 35.1 µM; with HT29 colon, 18.5 µM and 24.4 µM; with HL-60(TB) leukemia, 11.2 µM and 39.9 µM; in the assay on SF-268 CNS it was 1.88 µM and 2.82 µM; in the assay on SF-539 CNS, 9.82 µM and 12.5 µM; in the assay with OVCAR-3 ovarian it was 14.6 µM and 26.7 µM. Further, the TGI was over 100 µM in the assay on ACHN renal; 21.4 µM and 26.2 µM with LOX IMVI melanoma; 3.32 µM and 4.01 µM in the assay on SK-MEL-5 melanoma. In addition, the GI50 in the assay on SF-295 CNS is 0.231 µM and 1.7 µM.
Consider `COC(=O)[C@H](C)[C@H]1CC[C@@](C)([C@H]2CC3C(C)(C)[C@H]4CCC(C)=C[C@H]4C[C@@]3(C)O2)OO1` (stereo not given in full), for which the TGI in the assay with CAKI-1 renal is 18.2 µM; in the assay on HT29 colon, 27.2 µM; in the assay with HL-60(TB) leukemia it was 5.57 µM; in the assay on SF-268 CNS it was 25.9 µM; with SF-539 CNS it was 28.4 µM; in the assay on OVCAR-3 ovarian, 27.7 µM. The TGI in the assay with ACHN renal came to 23.4 µM; in the assay with LOX IMVI melanoma it was 3.5 µM; in the assay on SK-MEL-5 melanoma, 17.8 µM; in the assay on SF-295 CNS it was 28.4 µM.
With `CC1=CCP(C(F)(F)F)P(C(F)(F)F)C1` (stereo not given), the TGI with CAKI-1 renal, in the assay on HT29 colon, in the assay with HL-60(TB) leukemia, in the assay with SF-268 CNS, with SF-539 CNS and with OVCAR-3 ovarian was over 100 µM throughout. The total growth inhibition concentration (TGI) in the assay on ACHN renal, in the assay with LOX IMVI melanoma, with SK-MEL-5 melanoma and in the assay with SF-295 CNS was over 100 µM throughout.

Usually GI50 stands for the concentration giving 50% growth inhibition. By TGI is commonly meant the concentration giving total growth inhibition.

(Values after PubChem BioAssay (NCI).)
